Experimental data published in PubChem BioAssay (NCI).
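Tested at 5 concentrations; 48 h exposure; 96-well plates; endpoints linearly interpolated, else capped at highest concentration. Here, GI50 denotes the concentration required for 50% inhibition of growth. TGI denotes the concentration required for complete inhibition of growth.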

Assays:
Experiment in all cases: inhibition of tumour cell growth, NCI panel, 48 h
TK-10 renal = tested on: TK-10 renal
RXF 393 renal = tested on: RXF 393 renal
SNB-75 CNS = tested on: SNB-75 CNS
A498 renal = tested on: A498 renal
HOP-92 NSCLC = tested on: HOP-92 NSCLC
RPMI-8226 leukemia = tested on: RPMI-8226 leukemia
UACC-62 melanoma = tested on: UACC-62 melanoma
IGROV1 ovarian = tested on: IGROV1 ovarian
MDA-MB-231 breast = tested on: MDA-MB-231 breast
NCI-H460 lung = tested on: NCI-H460 lung

SMILES	GI50 (TK-10 renal) [µM]	TGI (TK-10 renal) [µM]	GI50 (RXF 393 renal) [µM]	TGI (RXF 393 renal) [µM]	GI50 (SNB-75 CNS) [µM]	TGI (SNB-75 CNS) [µM]	GI50 (A498 renal) [µM]	TGI (A498 renal) [µM]	GI50 (HOP-92 NSCLC) [µM]	TGI (HOP-92 NSCLC) [µM]	GI50 (RPMI-8226 leukemia) [µM]	TGI (RPMI-8226 leukemia) [µM]	GI50 (UACC-62 melanoma) [µM]	TGI (UACC-62 melanoma) [µM]	GI50 (IGROV1 ovarian) [µM]	TGI (IGROV1 ovarian) [µM]	GI50 (MDA-MB-231 breast) [µM]	TGI (MDA-MB-231 breast) [µM]	GI50 (NCI-H460 lung) [µM]	TGI (NCI-H460 lung) [µM]
Cc1nn2c(/C=C3\C(=O)Nc4ccc(Cl)cc43)c(C)nc2s1	> 100	> 100	> 100	> 100	16	92.2	46	> 100	> 100	> 100	33.2	> 100	82.1	> 100	23.7	> 100	> 100	> 100	16.3	> 100
COc1ccc(C(=O)OC2C(OC3C(O)COC(O[C@H]4C[C@H]5[C@@H]6CC=C7C[C@@H](O)CC[C@]7(C)[C@H]6CC[C@]5(C)[C@H]4[C@H](C)C(=O)CCC(C)C)C3OC(N)=O)OCC(O)C2O)cc1 (stereo not given in full)	1.04	5.23	< 0.003	0.0509	< 0.003	3.87	0.00699	0.0351	0.0686	1.2	< 0.003	0.00997	0.00978	0.04	0.0282	3.69	0.355	4.58	0.0142	0.496
COc1ccc(-c2nc(-c3nc4ccc(OC)cc4[nH]3)c3ccccn23)cc1	2.65	25.6	24.2	> 100	24	> 100	4.28	> 100	2.31	8.4	1.72	5.57	4.51	22	2.7	6.98	5.65	> 100	3.23	14
COc1cc(CSc2nc3ccc(C)cc3c(=O)n2-c2ccccc2)cc(OC)c1OC	8.1	> 100	1.1	> 25.5	0.328	2.98	1.92	9.15	1.03	8.74	3.28	> 100	1.93	> 100	3.36	> 100	2.92	> 100	2.3	> 100
